Source: US10801035B2, “Plants having increased tolerance to herbicides” (BASF SE, priority 2011, dated 2020)

Columns and labels:
Format in all cases: biochemical
[1] = target: T1, Hordeum HPPD (SEQ ID: 1/2) (Hordeum vulgare, UniProt O48604, A164G/R146V/R147D/R148G); test: HPPD activity assay, wildtype Hordeum HPPD; conditions: for Ki: Cheng-Prusoff from IC50, read-out: Ki (dissociation constant); for TI (tolerance index): not normalized
T1 construct: His6; made in house; host or cells: E. coli BL21 (DE3)
T1 sequence (O48604 whole entry R146V/R147D/R148G/A164G): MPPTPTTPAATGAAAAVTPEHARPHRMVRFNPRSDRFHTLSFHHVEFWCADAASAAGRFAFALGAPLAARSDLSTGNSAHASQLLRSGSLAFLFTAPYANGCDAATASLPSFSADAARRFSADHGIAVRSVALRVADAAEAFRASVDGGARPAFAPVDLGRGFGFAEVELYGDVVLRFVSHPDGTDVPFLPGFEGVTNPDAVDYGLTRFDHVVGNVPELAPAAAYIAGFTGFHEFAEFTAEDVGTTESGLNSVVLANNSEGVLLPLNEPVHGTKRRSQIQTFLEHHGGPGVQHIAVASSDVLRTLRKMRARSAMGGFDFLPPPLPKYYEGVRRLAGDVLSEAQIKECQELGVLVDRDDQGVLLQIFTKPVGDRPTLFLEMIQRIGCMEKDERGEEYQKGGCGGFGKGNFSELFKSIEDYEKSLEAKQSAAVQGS
Description: (§1) HPPD produces homogentisic acid and CO2 from 4-hydroxyphenylpyruvate (4-HPP) and O2. The activity assay for HPPD is based on the analysis of homogentisic acid by reversed phase HPLC.
(§2) The assay mixture can contain 150 mM potassium phosphate buffer pH 7.0, 50 mM L-ascorbic acid, 1 μM FeSO4 and 7 μg of purified enzyme in a total volume of 1 ml. Inhibitors are dissolved in DMSO (dimethylsulfoxide) to a concentration of 20 mM or 0.5 mM, respectively. From this stock solution serial five-fold dilutions are prepared in DMSO, which are used in the assay. The respective inhibitor solution accounts for 1% of the assay volume. Thus, final inhibitor concentrations range from 200 μM to 2.5 nM or from 5 μM to 63 pM, respectively. After a preincubation of 30 min the reaction is started by adding 4-HPP to a final concentration of 0.1 mM. The reaction is allowed to proceed for 120 min at room temperature. The reaction is stopped by addition of 100 μl of 4.5 M phosphoric acid.
Activities are normalized by setting the uninhibited enzyme activity to 100%. […] values are calculated using non-linear regression.
The assay mixture can contain 150 mM potassium phosphate buffer pH 7.0, 50 mM L-ascorbic acid, 100 μM Catalase (Sigma-Aldrich), 1 μM FeSO4 and 0.2 units of purified HPPD enzyme in a total volume of 505 μl. 1 unit is defined as the amount of enzyme that is required to produce 1 nmol of HGA per minute at 20° C.
Inhibitors are dissolved in DMSO (dimethylsulfoxide) to a concentration of 0.5 mM. From this stock solution serial five-fold dilutions are prepared in DMSO, which are used in the assay. The respective inhibitor solution accounts for 1% of the assay volume. Thus, final inhibitor concentrations range from 5 μM to 320 pM, respectively. Activities are normalized by setting the uninhibited enzyme activity to 100%. IC50 values are calculated using non-linear regression.
Using methods which are described in the above examples or well known in the art, purified, recombinant wildtype HPPD enzymes are characterized with respect to their kinetic properties and sensitivity towards HPPD inhibiting herbicides. Apparent michaelis constants (Km) and maximal reaction velocities (Vmax) are calculated by non-linear regression with the software GraphPad Prism 5 (GraphPad Software, La Jolla, USA) using a substrate inhibition model. Apparent kcat values are calculated from Vmax assuming 100% purity of the enzyme preparation. Weighted means (by standard error) of Km and […] values are calculated from at least three independent experiments. The Cheng-Prusoff equation for competitive inhibition (Cheng, Y. C.; Prusoff, W. H. Biochem Pharmacol 1973, 22, 3099-3108) is used to calculate dissociation constants (Ki).
Field performance of the HPPD enzyme, which is used as a herbicide tolerance trait may depend not only on its lack of sensitivity towards HPPD inhibiting herbicides but also on its activity. To assess the potential performance of a herbicide tolerance trait a tolerance index (TI) is calculated using the following formula: […]
Easy comparison and ranking of each trait is enabled by normalizing every tolerance index on Hordeum HPPD.

Rhodococcus HPPD1 = test: HPPD activity assay, Rhodococcus HPPD1; conditions: normalized on Hordeum HPPD
Description: as §1
(§3) The assay mixture can contain 150 mM potassium phosphate buffer pH 7.0, 50 mM L-ascorbic acid, 1 μM FeSO4 and 7 μg of purified enzyme in a total volume of 1 ml. Inhibitors are dissolved in DMSO (dimethylsulfoxide) to a concentration of 20 mM or 0.5 mM, respectively. From this stock solution serial five-fold dilutions are prepared in DMSO, which are used in the assay. The respective inhibitor solution accounts for 1% of the assay volume. […]
(§4) Activities are normalized by setting the uninhibited enzyme activity to 100%. […] values are calculated using non-linear regression. […]
(§5) Inhibitors are dissolved in DMSO (dimethylsulfoxide) to a concentration of 0.5 mM. […] IC50 values are calculated using non-linear regression.
(§6) Using methods which are described in the above examples or well known in the art, purified, recombinant wildtype HPPD enzymes are characterized with respect to their kinetic properties and sensitivity towards HPPD inhibiting herbicides. Apparent michaelis constants (Km) and maximal reaction velocities (Vmax) are calculated by non-linear regression with the software GraphPad Prism 5 (GraphPad Software, La Jolla, USA) using a substrate inhibition model. […]

Rhodococcus HPPD2 = test: HPPD activity assay, Rhodococcus HPPD2; conditions: normalized on Hordeum HPPD
Description: as §1, §3, §4, §5, §6

[2] = target: T2, Hordeum HPPD variant L353M, P321R, V212I (Hordeum vulgare, UniProt O48604, L353M/P321R/V212I); test: HPPD activity assay, Hordeum HPPD mutant L353M, P321R, V212I; conditions: normalized on wildtype
T2 construct: His6; made in house; host or cells: E. coli BL21 (DE3)
T2 sequence (O48604 whole entry R146V/R147D/R148G/A164G/V212I/P321R/L353M): as the sequence (O48604 whole entry R146V/R147D/R148G/A164G) above, with V212I, P321R, L353M counted along it
Description: as §1
as §2, with “The reaction is allowed to proceed for 120 min at room temperature. The reaction is stopped by addition of 100 μl of 4.5 M phosphoric acid.” left out
as §5
(§7) Purified, mutant HPPD enzymes are obtained by the methods described above. […] Apparent michaelis constants (Km) and maximal reaction velocities (Vmax) are calculated by non-linear regression with the software GraphPad Prism 5 (GraphPad Software, La Jolla, USA) using a substrate inhibition model. […] Weighted means (by standard error) of Km and […] values are calculated from at least three independent experiments. […]

[3] = target: T3, Hordeum HPPD variant V212L (Hordeum vulgare, UniProt O48604, A164G/R146V/R147D/R148G/V212L); test: HPPD activity assay, Hordeum HPPD mutant V212L; conditions: normalized on wildtype
T3 construct: His6; made in house; host or cells: E. coli BL21 (DE3)
T3 sequence (O48604 whole entry R146V/R147D/R148G/A164G/V212L): as the sequence (O48604 whole entry R146V/R147D/R148G/A164G) above, with V212L counted along it
Description: as §1
as §2, with “The reaction is allowed to proceed for 120 min at room temperature. The reaction is stopped by addition of 100 μl of 4.5 M phosphoric acid.” left out
as §5, §7

[4] = target: T4, Arabidopsis HPPD variant M335H, P336A, E363Q (Arabidopsis thaliana, UniProt P93836, E363Q/M335H/P336A); test: HPPD activity assay, Arabidopsis HPPD mutant M335H, P336A, E363Q; conditions: normalized on wildtype
T4 construct: His6 (N); made in house; host or cells: E. coli BL21 (DE3)
T4 sequence (P93836 whole entry M335H/P336A/E363Q): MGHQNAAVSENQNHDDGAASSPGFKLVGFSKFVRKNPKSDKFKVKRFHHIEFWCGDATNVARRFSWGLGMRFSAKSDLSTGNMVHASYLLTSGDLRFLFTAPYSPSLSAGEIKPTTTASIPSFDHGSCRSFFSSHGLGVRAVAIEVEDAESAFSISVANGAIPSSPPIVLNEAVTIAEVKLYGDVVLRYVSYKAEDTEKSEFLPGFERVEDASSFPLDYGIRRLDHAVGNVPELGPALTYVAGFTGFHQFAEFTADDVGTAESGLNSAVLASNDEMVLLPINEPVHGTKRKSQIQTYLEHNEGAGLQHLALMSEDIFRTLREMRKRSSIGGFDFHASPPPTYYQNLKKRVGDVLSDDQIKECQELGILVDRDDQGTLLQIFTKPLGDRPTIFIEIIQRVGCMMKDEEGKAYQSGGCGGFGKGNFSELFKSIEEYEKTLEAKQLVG
Description: as §1
as §2, with “The reaction is allowed to proceed for 120 min at room temperature. The reaction is stopped by addition of 100 μl of 4.5 M phosphoric acid.” left out
as §5, §7

[5] = Hordeum HPPD Wild-type, normalized on wildtype (Table 10)
[6] = Hordeum HPPD, normalized on Hordeum HPPD (Table 7)

Row | SMILES | Normalized tolerance index (TI) [1, 5] | Ki ([1]; Hordeum HPPD) [nM] | Normalized tolerance index (TI) [1, 6] | TI (tolerance index) ([1]; Hordeum HPPD) | Normalized tolerance index (TI) (Rhodococcus HPPD1) | Normalized tolerance index (TI) (Rhodococcus HPPD2) | Normalized tolerance index (TI) [2] | Normalized tolerance index (TI) [3] | Normalized tolerance index (TI) [4]
1 | CC1=NOC(c2c(Cl)ccc(C3=C(O)c4ncccc4N(CC(F)F)S3(=O)=O)c2Cl)C1 (stereo not drawn) [Inhibitor 1, 3-[2,4-dichloro-3-(3-methyl-4,5-dihydroisoxazol-5-yl)phenyl]-1-(2,2-difluoroethyl)-2,2-dioxo-pyrido[3,2-c]thiazin-4-ol] | 1 | 2.7 | 1 | 1.19E−3 | 40.1 | 73.9 | 2.3 | 2.6 | 3
2 | O=S1(=O)C(c2c(Cl)cc(Cl)nc2Cl)=C(O)c2ncccc2N1CC(F)F [Inhibitor 2, 1-(2,2-difluoroethyl)-2,2-dioxo-3-(2,4,6-trichloro-3-pyridyl)pyrido[3,2-c]thiazin-4-ol] | 1 | 2.6 | 1 | 1.13E−3 | 17.1 | 20.5 | 3 | 0.5 | 1.2
